Consider seven molecules from ChEMBL document CHEMBL3526086, “Identification of the oxidative and conjugative enzymes involved in the biotransformation of brivanib” (Drug Metab Dispos, 2012).

Data set [1] relates to Liver cytosol. Nature of the data set: Drug level in human liver cytosol treated with 2 uM [14C](R)-1-(4-(4-fluoro-2-(hydroxymethyl)-1H-indol-5-yloxy)-5-methylpyrrolo[1,2-f][1,2,4]triazin-6-yloxy)propan-2-ol for 60 mins by LC/MS analysis in presence of PAPS. It is filed as ADME, tissue-based.
In data set [2] the test system is Liver cytosol. Nature of the data set: Drug level in human liver cytosol treated with 2 uM [14C](R)-4-fluoro-5-(6-(2-hydroxypropoxy)-5-methylpyrrolo[1,2-f][1,2,4]triazin-4-yloxy)-1H-indole-2-carboxylic acid for 60 mins by LC/MS analysis in presence of PAPS. The class given is ADME, tissue-based.
The subject of data set [3] is Liver microsome. The data set can be described thus: Drug level in human liver microsomes treated with 2 uM [14C](R)-1-(4-(4-fluoro-2-methyl-1H-indol-5-yloxy)-5-methylpyrrolo[1,2-f][1,2,4]triazin-6-yloxy)propane-2-sulfonic acid for 60 mins by LC/MS analysis in presence of NADPH. The class given is ADME. A general note: Liver microsomes are a subcellular fraction often used to study metabolism.

Data set [4] has as its system Liver microsome. The data set can be described thus: Drug metabolism in human liver microsomes assessed as (R)-4-fluoro-5-(5-methyl-6-(2-sulfopropoxy)pyrrolo[1,2-f][1,2,4]triazin-4-yloxy)-1H-indole-2-carboxylic acid at 2 uM for 60 mins by LC/MS analysis in presence of NADPH. The class given is ADME.
The subject of data set [5] is Liver microsome. The data set can be described thus: Drug metabolism in human liver microsomes assessed as compound oxidation at 2 uM for 60 mins by LC/MS analysis in absence of NADPH. It is filed as ADME. The settings on record: 1 h.
Data set [6] concerns Liver microsome. The data set can be described thus: Drug metabolism in human liver microsomes assessed as (R)-1-(4-(4-fluoro-2-(hydroxymethyl)-1H-indol-5-yloxy)-5-methylpyrrolo[1,2-f][1,2,4]triazin-6-yloxy)propane-2-sulfonic acid at 2 uM for 60 mins by LC/MS analysis in presence of NADPH. The class given is ADME.
Data set [7] deals with Liver microsome. Nature of the data set: Drug level in human liver microsomes assessed as compound formation treated with 2 uM [14C]brivanib alaninate for 60 mins by LC/MS analysis in presence of NADPH. The class given is ADME. The settings on record: 1 h.
The subject of data set [8] is Liver cytosol. Nature of the data set: Drug level in human liver cytosol treated with 2 uM [14C](R)-1-(4-(4-fluoro-2-(hydroxymethyl)-1H-indol-5-yloxy)-5-methylpyrrolo[1,2-f][1,2,4]triazin-6-yloxy)propan-2-ol for 60 mins by LC/MS analysis in presence of NADPH. It is filed as ADME, tissue-based.
Data set [9] has as its system Liver cytosol. The data set can be described thus: Drug level in human liver cytosol treated with 2 uM [14C](R)-1-(4-(4-fluoro-2-(hydroxymethyl)-1H-indol-5-yloxy)-5-methylpyrrolo[1,2-f][1,2,4]triazin-6-yloxy)propan-2-ol for 60 mins by LC/MS analysis. It is filed as ADME, tissue-based.
Data set [10] deals with Liver cytosol. The data set can be described thus: Drug metabolism in human liver cytosol assessed as (R)-4-fluoro-5-(5-methyl-6-(2-sulfopropoxy)pyrrolo[1,2-f][1,2,4]triazin-4-yloxy)-1H-indole-2-carboxylic acid formation at 2 uM for 60 mins by LC/MS analysis in presence of PAPS. It is filed as ADME.
The test system of data set [11] is Liver cytosol. The data set can be described thus: Drug metabolism in human liver cytosol assessed as sulfate conjugate formation at 2 uM for 60 mins in absence of PAPS by LC/MS analysis. It is filed as ADME, tissue-based. To be noted: 1 h.
Substrate in data set [12]: Cc1cc2c(F)c(Oc3ncnn4cc(OC[C@@H](C)O)c(C)c34)ccc2[nH]1
Nature of the data set: Activity of human CYP1A2 assessed as enzyme-mediated (R)-1-(4-(4-fluoro-2-(hydroxymethyl)-1H-indol-5-yloxy)-5-methylpyrrolo[1,2-f][1,2,4]triazin-6-yloxy)propan-2-ol formation in presence of NADPH. The class given is ADME.

Consider `Cc1c(OC[C@@H](C)OS(=O)(=O)O)cn2ncnc(Oc3ccc4[nH]c(C(=O)O)cc4c3F)c12`, for which the Drug metabolism entry in the data set on Liver cytosol [1], with Liver cytosol [2] and with Liver microsome [3] was “metabolite_detected” each time.
Consider `Cc1cc2c(F)c(Oc3n[14cH]nn4cc(OC[C@@H](C)OS(=O)(=O)O)c(C)c34)ccc2[nH]1`, for which the values for the Drug metabolism result in the data set with Liver microsome [4], with Liver microsome [5] and with Liver microsome [6] were “metabolite_detected”, “metabolite_not_detected” and “metabolite_detected”, respectively.
In the case of `CC(=O)COc1cn2ncnc(Oc3ccc4[nH]c(C)cc4c3F)c2c1C`, in the data set on Liver microsome [7], the Drug metabolism entry is on record as “metabolite_detected”.
With `Cc1c(OC[C@@H](C)O)cn2ncnc(Oc3ccc4[nH]c(C(=O)O)cc4c3F)c12`, the Drug metabolism entry with Liver cytosol [8], with Liver microsome [7] and in the data set on Liver cytosol [9] was “metabolite_detected” throughout.
For the molecule `Cc1c(OC[C@@H](C)O)cn2n[14cH]nc(Oc3ccc4[nH]c(C(=O)O)cc4c3F)c12`, the figures for the Drug metabolism entry with Liver cytosol [10] and in the data set with Liver cytosol [11] were “metabolite_detected” and “metabolite_not_detected”, respectively.
As to `Cc1c(OC[C@@H](C)OS(=O)(=O)O)cn2ncnc(Oc3ccc4[nH]c(CO)cc4c3F)c12`, the Drug metabolism result in the data set with Liver cytosol [1] and in the data set on Liver microsome [3] was “metabolite_detected” each time.

B1: Cytochrome P450 1A2 (Homo sapiens) (protein)
chain: MALSQSVPFSATELLLASAIFCLVFWVLKGLRPRVPKGLKSPPEPWGWPLLGHVLTLGKNPHLALSRMSQRYGDVLQIRIGSTPVLVLSRLDTIRQALVRQGDDFKGRPDLYTSTLITDGQSLTFSTDSGPVWAARRRLAQNALNTFSIASDPASSSSCYLEEHVSKEAKALISRLQELMAGPGHFDPYNQVVVSVANVIGAMCFGQHFPESSDEMLSLVKNTHEFVETASSGNPLDFFPILRYLPNPALQRFKAFNQRFLWFLQKTVQEHYQDFDKNSVRDITGALFKHSKKGPRASGNLIPQEKIVNLVNDIFGAGFDTVTTAISWSLMYLVTKPEIQRKIQKELDTVIGRERRPRLSDRPQLPYLEAFILETFRHSSFLPFTIPHSTTRDTTLNGFYIPKKCCVFVNQWQVNHDPELWEDPSEFRPERFLTADGTAINKPLSEKMMLFGMGKRRCIGEVLAKWEIFLFLAILLQQLEFSVPPGVKVDLTPIYGLTMKHARCEHVQARLRFSIN
For B1, in data set [12], the Km (as a rule, the substrate concentration at which the rate is half of its maximum) worked out at 45 µM and the Vmax (commonly the top rate of the reaction or transport when substrate is in excess) was found to be 1.39e-06 µmol/min.
